The Papp A→B is how fast a substance crosses the layer from the apical side. High values mean fast passage, low ones slow passage. In general, Papp B→A refers to the apparent permeability from the basolateral to the apical side of a cell layer. The term Papp denotes a coefficient for how fast a substance crosses the barrier. A low value points to poor permeation.

Experimental findings from publication PMC9499525, “Tissue-restricted inhibition of mTOR using chemical genetics” (Proceedings of the National Academy of Sciences of the …, 2022) are described below.

Data set [1] concerns the target T1, FKBP12-HA (wild-type) / GST-mTOR FRB domain ternary complex (Homo sapiens, UniProt P42345+P62942).
T1 construct: recombinant HA-tagged wild-type or V55G mutant FKBP12 with GST-tagged mTOR FRB domain; 8xHis (cleaved yes); made in house; host or cells: E. coli BL21 (DE3) for FKBP12
Put plainly: TR-FRET ternary complex formation, wild-type FKBP12 with mTOR FRB. In kind it is binding. Here is the method: TR-FRET assay was performed using recommended conditions from Cisbio with slight modifications. FKBP12-HA, FKBP12 V55G-HA, and GST-mTORFRB recombinant proteins were each diluted to 5 nM in assay buffer (20 mM HEPES pH 7.5, 150 mM NaCl, 0.05% Tween-20, 0.1% bovine serum albumin [BSA], 0.5 mM dithiothreitol [DTT]). Anti-GST-Tb (Cisbio) and Anti-HA-XL665 (Cisbio) were diluted to 0.625 µg/mL and 5 µg/mL, respectively, in assay buffer. Rapa* compounds and FK506 were diluted to 50 µM and rapamycin to 5 µM in assay buffer containing 5% DMSO, and threefold serial dilution series were made from these solutions. […] Time-resolved fluorescence was read on a Tecan Spark 20M plate reader with the following parameters: Lag time: 60 µs; Integration time: 500 µs; Read A: Excitation filter 320 ([25]) nm, Emission filter 610 ([25]) nm, Gain 130; Read B: Excitation filter 320 ([25]) nm, Emission filter 665 ([8]) nm, Gain 165. […]
Human FKBP12 coding sequence was cloned a pET-47b bacterial expression vector using Gibson assembly and a C-terminal HA-tag was added by QuickChange PCR. FKBP12 proteins were expressed as 8xHis fusions in E. coli BL21 (DE3) cells. […]
PAMPA was performed by Quintara Discovery as described previously (2). Compounds were analyzed at 100 µM in PBS and measured using liquid chromatography-mass spectrometry (LC-MS) after 5 hours. […]

In data set [2] the target is T2, FKBP12 V55G-HA / GST-mTOR FRB domain ternary complex (Homo sapiens, UniProt P42345+P62942, V56G).
T2 construct: recombinant HA-tagged wild-type or V55G mutant FKBP12 with GST-tagged mTOR FRB domain; 8xHis (cleaved yes); made in house; host or cells: E. coli BL21 (DE3) for FKBP12
Put plainly: TR-FRET ternary complex formation, FKBP12 V55G with mTOR FRB. The data set is classed as binding. Here is the method:
TR-FRET assay was performed using recommended conditions from Cisbio with slight modifications. FKBP12-HA, FKBP12 V55G-HA, and GST-mTORFRB recombinant proteins were each diluted to 5 nM in assay buffer (20 mM HEPES pH 7.5, 150 mM NaCl, 0.05% Tween-20, 0.1% bovine serum albumin [BSA], 0.5 mM dithiothreitol [DTT]). Anti-GST-Tb (Cisbio) and Anti-HA-XL665 (Cisbio) were diluted to 0.625 µg/mL and 5 µg/mL, respectively, in assay buffer. Rapa* compounds and FK506 were diluted to 50 µM and rapamycin to 5 µM in assay buffer containing 5% DMSO, and threefold serial dilution series were made from these solutions. We mixed 4 µL diluted FKBP12-HA protein, 4 µL diluted GST-mTORFRB, and 4 µL of compound or DMSO control in a well of a black low-volume 384-well plate (Corning 4514), and the mixture was incubated at room temperature for 1 h. We then added 4 µL of Anti-GST-Tb, and 4 µL Anti-HA-XL665, and the mixture was incubated at room temperature for an additional 1 h. Time-resolved fluorescence was read on a Tecan Spark 20M plate reader with the following parameters: Lag time: 60 µs; Integration time: 500 µs; Read A: Excitation filter 320 ([25]) nm, Emission filter 610 ([25]) nm, Gain 130; Read B: Excitation filter 320 ([25]) nm, Emission filter 665 ([8]) nm, Gain 165. Three replicates were performed for each assay condition. […]
Human FKBP12 coding sequence was cloned a pET-47b bacterial expression vector using Gibson assembly and a C-terminal HA-tag was added by QuickChange PCR. FKBP12 proteins were expressed as 8xHis fusions in E. coli BL21 (DE3) cells. […] Samples were then purified by size exclusion chromatography, concentrated to 10-20 mg/mL, and snap frozen in liquid nitrogen. pGEX-2T FRB was a gift from Jie Chen (Addgene plasmid #26607). mTOR FRB was expressed as a GST-fusion and purified as previously described (1). […]
PAMPA was performed by Quintara Discovery as described previously (2). Compounds were analyzed at 100 µM in PBS and measured using liquid chromatography-mass spectrometry (LC-MS) after 5 hours. […] Compounds were analyzed at 10 µM and measured by LC-MS after 1 hour.
On the technique in general: Time-resolved FRET reads energy transfer from a long-lived donor to a nearby acceptor.

The nature of data set [3]: Bidirectional Caco-2 cell permeability. The data set is classed as in vitro ADME. Particulars: human, LC-MS. The protocol:
PAMPA and Caco-2 membrane permeability assays […]
MS) after 5 hours. Bidirectional Caco-2 cell permeability assay was performed by Quintara
Discovery. Compounds were analyzed at 10 µM and measured by LC-MS after 1 hour.
Background: Caco-2 monolayers are a common model of the intestinal barrier.

A short description of data set [4]: PAMPA membrane permeability. The settings on record: 100 µM in PBS, LC-MS. The data set is classed as in vitro ADME. The protocol: PAMPA and Caco-2 membrane permeability assays
PAMPA was performed by Quintara Discovery as described previously (2). Compounds were
analyzed at 100 µM in PBS and measured using liquid chromatography-mass spectrometry (LC-
(The PAMPA barrier holds no transporters, so it reflects passive diffusion.)

For data set [5], the system named is S. cerevisiae BY4741 fpr1-KO expressing human FKBP12 variants. Put plainly: Yeast disk diffusion growth inhibition assay. In kind it is cell-based, Saccharomyces cerevisiae. Particulars: 100 µM on disk, 3 d. The source says:
BY4741 fpr1::URA3 yeast were generated by homologous recombination, selected on Ura- synthetic complete medium and subsequently grown in yeast extract-peptone-dextrose (YPD) medium ([46]). Human FKBP12 coding sequence was cloned via Gibson assembly into a pCH043 yeast expression vector, which had been previously modified with an HIS3 selection open reading frame (ORF). The C-terminal HA-tag and F46/V55 mutations were introduced by site-directed mutagenesis PCR. Plasmids were transformed into the BY4741 fpr1::URA3 strain and selected on His- synthetic complete medium. Isolated strains were verified by plasmid sequencing. To prepare yeast protein lysates, 2 optical density (OD) equivalents from an overnight culture was resuspended in 200 µl 0.1 M NaOH and incubated at room temperature for 15 min. Cells were pelleted, resuspended in 50 µL 2x SDS loading dye, and heated at 95 °C for 5 min. Following centrifugation at 20,000 × g for 10 min, supernatant was saved for analysis.
Yeast strains containing FKBP12-expression vectors were shaken overnight at 30 °C in 3 mL His- synthetic complete media. 0.1 OD of culture was spun down, resuspended in 1 mL sterile water, and 100 µL was spread on His-synthetic media containing galactose/raffinose to induce protein expression. Plates were incubated at 30 °C for 1 h to dry. Filter paper circles were prepared with a hole punch, placed on the plate, and 5 µL of DMSO, 100 µM rapamycin, or 100 µM Rapa* compound was pipetted onto the filter paper. Plates were incubated at 30 °C for 3 d before zones of growth inhibition were measured.

The test system of data set [6] is Flp-In 293 cells with and without FKBP12 V55G-HA. Description: Cell growth by CellTiter-Glo in Flp-In 293 cells. Particulars: 72 h treatment. The data set is classed as cell-based, human.
Protocol: All cell lines were maintained in DMEM (Gibco) supplemented with 10% heat-inactivated FBS (Axenia Biologix) at 37 °C in 5% CO2. Flp-In T-REx 293 cells were obtained from Thermo Fisher supplemented with 15 µg/mL blasticin and 100 µg/mL Zeocin. […] When indicated, cells were treated with drugs at 60–80% confluency at a final DMSO concentration of 0.1%.
Cells were seeded into 96-well tissue-culture treated plates (Greiner) and were allowed to incubate for 24 h. Cells were treated with indicated compounds and incubated for 72 h (100 µL final well volume, 0.1% DMSO). Cell viability was assessed by CellTiter-Glo (Promega). Assay reagent was diluted 1:4 in PBS containing 1% Triton X-100, and 100 µL was added to each well and mixed on a plate shaker for 20 min. Luminescence was measured on a Tecan Spark 20M.
The test system of data set [7] is Drosophila larvae (w1118 control and FKBP12 V55G transgenic). Put plainly: Drosophila larval development (pupae 9 d after egg laying). In kind it is in vivo. Here is the method: All Drosophila stocks and crosses were maintained on standard cornmeal-molasses food at 25 °C using a 12-h light/dark cycle. To generate UAS-FKBP12 V55G-HA transgenic lines, human FKBP12 V55G-HA ORF was cloned into a pUAST-attB vector between EcoR-I and Xho-I restriction sites. This construct was then integrated into an attB site using phiC31 integrase with the assistance of Rainbow Transgenic Flies, Inc. The driver stocks da-GAL4 (ubiquitous), elav-GAL4 and nSyb-GAL4 (neuronal-specific), Mef2-GAL4 and mhc-GAL4 (musculature), and 2–286-GAL4 and phm-GAL4 (ring-gland-specific) were obtained from Bloomington Drosophila Stock Center. The crossing schemes used in this study are depicted in SI Appendix, Fig. S11. For rapamycin or Rapa*3Z related experiments, fly food was prepared freshly 24 h before each experiment.
Fly food containing ethanol vehicle was used as control. […] Three biological replicates were used for each experiment. Data were analyzed using Prism 9.0 (GraphPad).

T2 sequence (P62942 whole entry V56G, the tested form may be a part): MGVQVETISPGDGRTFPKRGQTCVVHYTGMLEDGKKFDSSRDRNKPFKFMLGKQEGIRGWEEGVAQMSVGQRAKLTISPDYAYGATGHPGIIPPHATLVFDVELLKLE
T2 sequence (P42345 2012-2144 limits assumed): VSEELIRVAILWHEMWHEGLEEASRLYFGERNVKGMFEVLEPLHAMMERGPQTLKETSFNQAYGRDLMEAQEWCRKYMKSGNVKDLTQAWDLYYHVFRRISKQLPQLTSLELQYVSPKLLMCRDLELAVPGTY
T1 sequence (P62942 whole entry, the tested form may be a part): as the sequence (P62942 whole entry V56G, the tested form may be a part) above, with G56V counted along it
T1 sequence (P42345 2012-2144 limits assumed): as the sequence (P42345 2012-2144 limits assumed) above

Consider `C=CC[C@@H]1/C=C(\C)C[C@H](C)C[C@H](OC)[C@H]2O[C@@](O)(C(=O)C(=O)N3CCCC[C@H]3C(=O)O[C@H](/C(C)=C/[C@@H]3CC[C@@H](O)[C@H](OC)C3)[C@H](C)[C@@H](O)CC1=O)[C@H](C)C[C@@H]2OC` [FK506, reference compound], for which the “Ternary complex induction (in words), wild-type FKBP12” value in data set [1] is listed as “failed to induce either ternary complex”. The “Ternary complex induction (in words), FKBP12 V55G” value in data set [2] is reported as “failed to induce either ternary complex”.
On to `CO[C@H]1C[C@@H]2CC[C@@H](C)[C@@](O)(O2)C(=O)C(=O)N2CCCC[C@H]2C(=O)O[C@H]([C@H](C)C[C@@H]2CC[C@@H](O)[C@H](OC)C2)C/C(=N/O)[C@H](C)/C=C(\C)[C@@H](O)[C@@H](OC)C(=O)[C@H](C)C[C@H](C)/C=C/C=C/C=C/1C` [Rapa*-1Z], for which, in data set [3], the Papp A→B at 1 h, 10 µM was less than 0.3 ×10⁻⁶ cm/s and the Papp B→A at 1 h, 10 µM came to 1.6 ×10⁻⁶ cm/s. The Papp at 5 h, 100 µM in data set [4] came to 0.002 ×10⁻⁶ cm/s.
In data set [3], `C=CCO/N=C1/C[C@@H]([C@H](C)C[C@@H]2CC[C@@H](O)[C@H](OC)C2)OC(=O)[C@@H]2CCCCN2C(=O)C(=O)[C@]2(O)O[C@@H](CC[C@H]2C)C[C@H](OC)/C(C)=C/C=C/C=C/[C@@H](C)C[C@@H](C)C(=O)[C@H](OC)[C@H](O)/C(C)=C/[C@H]1C` [Rapa*-9Z] had a Papp A→B at 1 h, 10 µM of less than 0.1 ×10⁻⁶ cm/s and a Papp B→A at 1 h, 10 µM of 0.4 ×10⁻⁶ cm/s. Also, the Papp at 5 h, 100 µM in data set [4] turned out to be 0.014 ×10⁻⁶ cm/s.
In the case of `CO[C@H]1C[C@@H]2CC[C@@H](C)[C@@](O)(O2)C(=O)C(=O)N2CCCC[C@H]2C(=O)O[C@H]([C@H](C)C[C@@H]2CC[C@@H](O)[C@H](OC)C2)CC(=O)[C@H](C)/C=C(\C)[C@@H](O)[C@@H](OC)C(=O)[C@H](C)C[C@H](C)/C=C/C=C/C=C/1C` [rapamycin, reference compound], the “Growth inhibition of yeast, fpr1-KO with empty vector” value in data set [5] is “conferred resistance to rapamycin”. The “Growth inhibition of yeast expressing wild-type human FKBP12” value in data set [5] (fpr1-KO + human FKBP12) is on record as “rescued full sensitivity”. Moreover, the “Growth inhibition of yeast expressing FKBP12 F46/V55 mutants” value in data set [5] (mutant strains) was “retained activity, albeit reduced, in the mutant strains”. In data set [3], this compound came in with a Papp A→B at 1 h, 10 µM of 0.8 ×10⁻⁶ cm/s and a Papp B→A at 1 h, 10 µM of 2.3 ×10⁻⁶ cm/s. Further, in data set [2] (FKBP12 vs FKBP12 V55G), the “Selectivity of ternary complex induction, wild-type vs V55G” value is “slightly selective toward the wild-type complex”. Further, the “Cell growth inhibition, 293 cells with and without FKBP12 V55G” value in data set [6] is “inhibited mutant and wild-type cells equally”. Besides, the “Effect on larval development in wild-type animals” value in data set [7] (wild-type (w1118) larvae, compound in food) is “profound inhibition of larval development”. For the same compound, the “Dose required for complete inhibition of larval development” value in data set [7] (wild-type flies (w1118), in food, 9 d after egg laying) came out at 1 µM. Further, in data set [4], the Papp at 5 h, 100 µM came to 0.209 ×10⁻⁶ cm/s.
